Data reported in PubChem BioAssay (NCI).
In brackets after ≈: the same amount, converted by molar mass.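 Cultured in 96-well plates, cells were exposed to test compound for 48 hours across five concentrations. GI50: concentration for 50% inhibition of growth. TGI: total growth inhibition.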

Key:
Experiment in all cases: NCI anticancer screen, dose series, 48 h
[1] = tested on: HOP-92 NSCLC
[2] = tested on: MALME-3M melanoma
[3] = tested on: MCF7 breast
[4] = tested on: MOLT-4 leukemia
[5] = tested on: OVCAR-8 ovarian
[6] = tested on: SF-268 CNS
[7] = tested on: SW-620 colon
[8] = tested on: IGROV1 ovarian
[9] = tested on: SNB-75 CNS

| SMILES | TGI [1] | TGI [2] | TGI [3] | TGI [4] | TGI [5] | TGI [6] | TGI [7] | GI50 [8] | TGI [8] | GI50 [2] | GI50 [3] | GI50 [4] | GI50 [5] | GI50 [6] | GI50 [9] | TGI [9] | GI50 [7] |
| --- | --- | --- | --- | --- | --- | --- | --- | --- | --- | --- | --- | --- | --- | --- | --- | --- | --- |
| Cn1nc(S(N)(=O)=O)s/c1=N/C(N)=S | > 100 µM | > 100 µM | > 100 µM | > 100 µM | > 100 µM | > 100 µM | > 100 µM |  |  |  |  |  |  |  |  |  |  |
| COc1cc(/C=C2/N=C(c3ccccc3)N(C3=NNC4(C(=O)N3)c3ccccc3-c3ccccc34)NC2=O)ccc1O |  | 57 µg/mL | 77.1 µg/mL | 123 µg/mL | 45.5 µg/mL | 66.7 µg/mL | 73.6 µg/mL | 30.4 µg/mL (≈ 54.6 µM) | 63.3 µg/mL | 26.5 µg/mL (≈ 47.6 µM) | 33.2 µg/mL (≈ 59.6 µM) | 35.7 µg/mL | 24 µg/mL (≈ 43.2 µM) | 27.5 µg/mL (≈ 49.4 µM) | 23.4 µg/mL (≈ 42.1 µM) | 45.8 µg/mL | 31.1 µg/mL (≈ 55.9 µM) |
| COc1ccc2c(c1)/c(=C/c1ccc(N(C)C)cc1)c1cc(-c3ccccc3)[n+](C)n12 | 0.784 µM |  | 7.11 µM | 4.92 µM | 0.44 µM | 1.1 µM | 1.97 µM |  | 0.543 µM |  |  | 0.142 µM |  |  |  | 0.327 µM |  |
| COc1cc(/C=C2\CCC(C)C3=C2NC(=S)NC3c2cc(OC)c(OC)c(OC)c2)cc(OC)c1OC (configuration not stated) | > 100 µM |  | > 100 µM | 92.4 µM | > 100 µM | > 100 µM | > 100 µM |  | > 100 µM |  |  |  |  |  |  | 66.3 µM |  |
| COc1cc(C2SCC(=O)N2c2ccc(Oc3ccc(Cl)cc3)c(Cl)c2)cc(OC)c1OC (configuration not stated) |  | 37.5 µM | > 100 µM | > 100 µM | 30.7 µM | 31 µM | 58.3 µM |  | 30.7 µM |  |  |  |  |  |  | 31.3 µM |  |
| O=C(NCCCNCCNC(=O)c1cc(-c2ccccc2)nc2ccccc12)c1cc(-c2ccccc2)nc2ccccc12 | 6.37 µM | 3.43 µM | 3.15 µM | 4.31 µM | 3.16 µM |  | 3.09 µM |  | 3.59 µM |  |  |  |  |  |  | 2.83 µM |  |
| C[n+]1c2ccccc2c(C(=O)Nc2ccc(S(=O)(=O)N=C(N)N)cc2)c2ccccc21 |  | > 100 µM | > 100 µM | > 100 µM | > 100 µM | > 100 µM | > 100 µM |  | > 100 µM |  |  |  |  |  |  | > 100 µM |  |
| S=C(S)NCC1CCC(CNC(=S)S)CC1 (configuration not stated) |  | 63.1 µM | 81.3 µM | 65.2 µM | 47.9 µM | > 100 µM | > 100 µM |  | 33.9 µM |  |  |  |  |  |  | > 100 µM |  |
| O=c1[nH]nc(Cc2ccccc2)n1-n1cnnc1 | > 100 µM |  | > 100 µM | > 100 µM | > 100 µM | > 100 µM | > 100 µM |  | > 100 µM |  |  |  |  |  |  | > 100 µM |  |
| COc1ccc(/C=C2\N=C(c3ccccc3)N(C3Nc4cc5c(cc4S3)NC(N3C(=O)/C(=C/c4ccc(OC)cc4)N=C3c3ccccc3)S5)C2=O)cc1 (configuration not stated) | > 100 µM |  | > 100 µM | > 100 µM | > 100 µM | > 100 µM | > 100 µM |  | > 100 µM |  |  |  |  |  |  | 94.2 µM |  |
| CCCCOCn1c(=O)[nH]c(=O)c2cc(Br)ccc21 | > 100 µM |  | > 100 µM | > 100 µM | 88.6 µM |  | > 100 µM |  | > 100 µM |  |  |  |  |  |  | > 100 µM |  |
| CC(C)CNC(=O)Cn1c(-c2ccccc2)cc2ccccc21 |  | > 100 µM | > 100 µM | > 100 µM | > 100 µM | > 100 µM | > 100 µM |  | > 100 µM |  |  |  |  |  |  | > 100 µM |  |
| CCc1ccc2c(c1)CC1(C2)Cc2cc3c(cc2C1)C(=O)CC3 (configuration not stated) | 52.7 µM | 57.1 µM | > 100 µM |  | 64.9 µM |  |  |  | > 100 µM |  |  |  |  |  |  |  |  |
| C[C@]12CC[C@H](O)CC1=CC[C@@H]1[C@@H]2CC[C@]2(C)/C(=N/OCCN3CCCC3)CC[C@@H]12 |  | 27.1 µM | 44.9 µM | 34.8 µM | 30.7 µM | > 100 µM | 31.1 µM |  | 34.3 µM |  |  |  |  |  |  | 45 µM |  |
| c1ccc2c(c1)nc1n2CCSC1 | > 100 µM |  | > 100 µM | > 100 µM |  | > 100 µM | > 100 µM |  | > 100 µM |  |  |  |  |  |  | > 100 µM |  |
| CCOC(=O)C(CS)NC(=O)CCCCCCCC(=O)NC(CS)C(=O)OCC (configuration not stated) | > 100 µM | > 100 µM | > 100 µM | > 100 µM | > 100 µM |  | > 100 µM |  | > 100 µM |  |  |  |  |  |  | > 100 µM |  |
| O=c1[nH]c(N/N=C\C(O)C(O)C(O)CO)nc2ccccc12 (configuration not stated) | > 100 µM |  | > 100 µM | > 100 µM | > 100 µM | > 100 µM | > 100 µM |  | > 100 µM |  |  |  |  |  |  | > 100 µM |  |
| CC(C)N(C)C(=O)C12C3C4C1C1C2C3C41C#N (configuration not stated) | > 100 µM |  | > 100 µM | > 100 µM | > 100 µM | > 100 µM | > 100 µM |  | > 100 µM |  |  |  |  |  |  | > 100 µM |  |
